In patent publication US5391540A, “Substituted pyridine compounds” (Rohm and Haas Company, priority 1993, dated 1995):

Columns and labels:
Assay in all cases: Pre-emergent herbicidal activity (Table A)
Format in all cases: in vivo
Barnyardgrass = details: Echinochloa crus-galli, pre-emergence, Bygr, 11.2 kg/ha, 10-14 days, read-out: herbicidal rating (% inhibition)
Method: (§1) The herbicidal ratings used in Tables A and B were assigned according to a scale based on the percent inhibition of each plant species. The herbicide rating symbols in Tables A and B are defined as follows: […]
(§2) One set of pre-emergent tests was conducted as follows:
(§3) Topsoil was placed in a pan and compacted to a depth of 0.95 to 1.27 cm. from the top of the pan. A predetermined number of seeds of each of several monocotyledonous and dicotyledonous annual plant species and/or vegetative propagules of various perennial plant species were placed on top of the soil. The soil required to level fill a pan after seeding or adding vegetative propagules was weighed into another pan. A known amount of the test compound dissolved or suspended in an organic solvent or water and applied in acetone or water as a carrier was thoroughly mixed with this cover soil, and the herbicide/soil mixture was used as a cover layer for the previously prepared pan.
(§4) The plant species usually regarded as weeds which were utilized in one set of pre-emergent activity tests, the data for which are shown in Table A, are identified by letter headings printed diagonally above the columns according to the following legend: […]

Canada thistle = details: Cirsium arvense, pre-emergence, Cath, 11.2 kg/ha, 10-14 days, read-out: herbicidal rating (% inhibition)
Method: as §1, §2, §3, §4

Cocklebur = details: Xanthium strumarium, pre-emergence, Cobu, 11.2 kg/ha, 10-14 days, read-out: herbicidal rating (% inhibition)
Method: as §1, §2, §3, §4

Common Lambsquarters = details: Chenopodium album, pre-emergence, Colq, 11.2 kg/ha, 10-14 days, read-out: herbicidal rating (% inhibition)
Method: as §1, §2, §3, §4

Downy Brome = details: Bromus tectorum, pre-emergence, Dobr, 11.2 kg/ha, 10-14 days, read-out: herbicidal rating (% inhibition)
Method: as §1, §2, §3, §4

Morningglory = details: Ipomoea, pre-emergence, Mogl, 11.2 kg/ha, 10-14 days, read-out: herbicidal rating (% inhibition)
Method: as §1, §2, §3, §4

Quackgrass = details: pre-emergence, Rhqg, 11.2 kg/ha, 10-14 days, read-out: herbicidal rating (% inhibition)
Method: as §1, §2, §3, §4

Rhizome Johnsongrass = details: Sorghum halepense, pre-emergence, Rhjg, 11.2 kg/ha, 10-14 days, read-out: herbicidal rating (% inhibition)
Method: as §1, §2, §3, §4

Velvetleaf = details: Abutilon theophrasti, pre-emergence, Vele, 11.2 kg/ha, 10-14 days, read-out: herbicidal rating (% inhibition)
Method: as §1, §2, §3, §4

Yellow Nutsedge = details: Cyperus, pre-emergence, Yens, 11.2 kg/ha, 10-14 days, read-out: herbicidal rating (% inhibition)
Method: as §1, §2, §3, §4

Pennsylvania Smartweed = details: pre-emergence, Pesw, 11.2 kg/ha, 10-14 days, read-out: herbicidal rating (% inhibition)
Method: as §1, §2, §3, §4

| SMILES | inhibition at 11200 g/ha (Barnyardgrass) [%] | inhibition at 11200 g/ha (Canada thistle) [%] | inhibition at 11200 g/ha (Cocklebur) [%] | inhibition at 11200 g/ha (Common Lambsquarters) [%] | inhibition at 11200 g/ha (Downy Brome) [%] | inhibition at 11200 g/ha (Morningglory) [%] | inhibition at 11200 g/ha (Quackgrass) [%] | inhibition at 11200 g/ha (Rhizome Johnsongrass) [%] | inhibition at 11200 g/ha (Velvetleaf) [%] | inhibition at 11200 g/ha (Yellow Nutsedge) [%] | inhibition at 11200 g/ha (Pennsylvania Smartweed) [%] |
| --- | --- | --- | --- | --- | --- | --- | --- | --- | --- | --- | --- |
| COC(=O)c1c(OC)nc(C(F)(F)F)c(C(=O)OC)c1CBr [Compound 87, 3,5-pyridinedicarboxylic acid, 4-(bromomethyl)-2-methoxy-6-(trifluoromethyl)-, dimethyl ester] | 0 to 24 | 0 to 24 | 0 to 24 | 50 to 74 | 0 to 24 | 0 to 24 | 0 to 24 | 0 to 24 | 0 to 24 | 0 to 24 |  |
| C#CCOC(=O)c1c(C(F)(F)F)nc(OC)c(C(=O)OC)c1CC(C)C [Compound 82, 3,5-pyridinedicarboxylic acid, 2-methoxy-4-(2-methylpropyl)-6-(trifluoromethyl)-, 3-methyl 5-(2-propynyl)ester] | 75 to 100 | 75 to 100 | 50 to 74 | 75 to 100 | 75 to 100 | 75 to 100 | 50 to 74 |  | 75 to 100 | 25 to 49 | 75 to 100 |
| CCOc1nc(C(F)(F)F)c(C(=O)SC)c(CC(C)C)c1C(=O)SC [Compound 19, 3,5-pyridinedicarbothioic acid, 2-ethoxy-4-(2-methylpropyl)-6-(trifluoromethyl)-, S,S-dimethyl ester] | 75 to 100 | 25 to 49 | 25 to 49 | 75 to 100 |  | 50 to 74 | 75 to 100 | 0 to 24 | 75 to 100 | 0 to 24 | 75 to 100 |
| COC(=O)c1c(OC)nc(C(F)(F)F)c(C(=O)Cl)c1CC(C)C [Compound 84, 3-pyridinecarboxylic acid, 5-(chlorocarbonyl)-2-methoxy-4-(2-methylpropyl)-6-(trifluoromethyl)-, methyl ester] | 75 to 100 | 75 to 100 | 0 to 24 | 75 to 100 | 75 to 100 | 25 to 49 | 0 to 24 | 0 to 24 | 0 to 24 | 0 to 24 |  |
| COC(=O)c1c(OC)nc(C(F)(F)F)c(C=O)c1CC(C)C [Compound 79, 3-pyridinecarboxylic acid, 5-formy1-2-methoxy-4-(2-methylpropyl)-6-(trifluoromethyl)-, methyl ester] | 75 to 100 | 75 to 100 | 0 to 24 | 75 to 100 | 75 to 100 | 50 to 74 | 75 to 100 |  | 50 to 74 | 0 to 24 | 75 to 100 |
| CCOc1nc(C(F)(F)F)c(C(=O)OC)c(CC(C)C)c1C(=O)N(C)C [Compound 17, 3-pyridinecarboxylic acid, 5-[(dimethylamino)carbony]-6-ethoxy-4-(2-methylpropyl)-2-(trifluoromethyl)-, methyl ester] | 75 to 100 | 0 to 24 | 0 to 24 | 50 to 74 |  | 0 to 24 | 0 to 24 | 0 to 24 | 0 to 24 | 0 to 24 | 0 to 24 |
| COC(=O)c1c(OCC#N)nc(C(F)(F)F)c(C(=O)OC)c1CC(C)C [Compound 80, 3,5-pyridinedicarboxylic acid, 2-(cyanomethoxy)-4-(2-methylpropyl)-6-(trifluoromethyl)-, dimethyl ester] | 75 to 100 | 75 to 100 | 25 to 49 | 75 to 100 | 75 to 100 | 75 to 100 | 25 to 49 |  | 75 to 100 | 50 to 74 | 75 to 100 |
| CCCOc1nc(C(F)(F)F)c(C(=O)OC)c(CC(C)C)c1C(=O)OCC [Compound 7, 3,5-pyridinedicarboxylic acid, 4-(2-methylpropyl)-2-propyloxy-6-(trifluoromethyl)-,3-ethyl 5-methyl ester] | 75 to 100 | 0 to 24 | 0 to 24 | 75 to 100 |  | 0 to 24 | 0 to 24 | 0 to 24 | 0 to 24 | 0 to 24 | 25 to 49 |
| COC(=O)c1c(OC)nc(C(F)(F)F)c(C(=O)OC)c1CC(=O)O [Compound 13, 3,5-pyridinedicarboxylic acid, 4-(carboxymethyl)-2-methoxy-6-(trifluoromethyl)-, dimethyl ester] | 0 to 24 | 0 to 24 | 0 to 24 | 0 to 24 | 0 to 24 | 0 to 24 | 0 to 24 | 0 to 24 | 0 to 24 | 0 to 24 |  |
| COC(=O)c1c(OC)nc(C(F)(F)F)c(C(=O)OCCF)c1CC(C)C [Compound 81, 3,5-pyridinedicarboxylic acid, 2-methoxy-4-(2-methylpropyl)-6-(trifluoromethyl)-, 5-(2-fluoroethyl) 3-methyl ester] | 75 to 100 | 75 to 100 | 75 to 100 | 75 to 100 | 75 to 100 | 75 to 100 | 75 to 100 |  | 75 to 100 | 75 to 100 | 75 to 100 |
| COC(=O)c1c(C(F)(F)F)nc(OC)c(N)c1CC(C)C [Compound 32, 3-pyridinecarboxylic acid, 5-amino-6-methoxy-4-(2-methylpropyl)-2-(trifluoromethyl)-, methyl ester] | 75 to 100 | 0 to 24 | 0 to 24 | 75 to 100 | 0 to 24 | 0 to 24 | 0 to 24 |  | 0 to 24 | 0 to 24 | 50 to 74 |
| COCc1c(C(=O)OC)c(OC)nc(C(F)(F)F)c1C(=O)OC [Compound 88, 3,5-pyridinedicarboxylic acid, 2-methoxy-4-(methoxymethyl)-6-(trifluoromethyl)-, dimethyl ester] | 75 to 100 | 0 to 24 | 0 to 24 | 50 to 74 | 25 to 49 | 25 to 49 | 0 to 24 | 0 to 24 | 25 to 49 | 0 to 24 |  |
